Patent US20030129262A1, “Methionine restriction for cancer therapy” (priority 2001, published 2003)
Counter-ions that a name gives are not always drawn. Starred links: 1 amine or outer side, 2 acyl side, 3 side chain; linkers in the order of their positions; H or OH if unused. Positions of bridges follow the written chain, without caps; N, C: chain ends. Non-standard residues stand in square brackets, D forms with d. Residues, ends and D or L forms follow the SMILES beside them. Chains are numbered I, II in the order given. Actinocin(9to1) = Cc1c2oc3c(C)ccc(C(=O)[*:1])c3nc-2c(C(=O)[*:2])c(N)c1=O; NMeV = CN[C@H](C(=O)O)C(C)C; Sar = CNCC(=O)O

How the values were obtained:
PC-3 cells [1] = assay: HPLC analysis of nucleotide levels; assay type: cell-based, Human; settings: positive control for TS inhibition
Method: Cells were washed with phosphate buffered saline (PBS), trypsinized, washed again with PBS, counted, and pelleted. 5×10^5 cells from each sample were mixed with 10 μL 0.6 M trichloroacetic acid. The lysate was incubated at 4° C. for 30 minutes. After centrifugation, the acidic supernatant was transferred to a microcentrifuge tube. An equal volume of ice cold 80% 1,1,2-trichlorotrifluoroethane and 20% tri-n-octylamine was added to the lysate. The mixture was vortexed for 15 seconds and then centrifuged at 14000 g at 4° C. for 5 minutes. The aqueous supernatant was removed and centrifuged at 14000 g at 4° C. for 5 minutes. Samples were stored at −70° C. until use.used.
Clromatographic analyses were performed with a Waters 625 LC System (Waters Corporation, Milford, Mass., USA) consisting of a Waters 625 Fluid Handling Unit with a Rheodyne 9125-080 Manual Injector and 20 μL sample loop, 625E Powerline Controller, and 484 Tunable UV Detector. […]
A series of standards containing varying amounts of dUMP and dTTP ranging from […] was analyzed using the above methodology. The different quantities and their correlating absorption areas existed in a linear relationship. […] This linear equation was used to calculate the quantity of dUMP or dTTP represented by the absorption peaks in the chromatograms generated from our experimental samples.

thymidylate synthase [2] = assay: Western blot of TS protein in PC3 cells; assay type: cell-based, Human
Method: (§1) Human prostate cancer PC3 cells (American Type Culture Collection, Rockville, Md.) were maintained in RPMI-1640 (Life Technologies, Inc., Gaithersburg, Md.) supplemented with 10% FBS (HyClone Laboratories, Logan, Utah) at 37° C. in 5% CO2. Methionine restriction experiments were performed in methionine-free RPMI-1640 (Life Technologies, Inc.) supplemented with 10% FBS and 100 μM Homocysteine (Sigma, St. Louis). Folate restriction experiments were performed in folate-free RPMI-1640 medium (Life Technologies, Inc.) supplemented with 10% FBS. Primary culture prostate epithelial cells (PrEC) were purchased from BioWhittaker, Inc. and Clonetics Products (Walkersville, Md.). PrEC was maintained in the prostate epithelial basal medium and methionine restriction was performed in prostate epithelial cell labeling medium without methionine supplemented with 100 μM homocysteine, which were obtained from the company.
Aliquots of samples with 50 μg of protein, determined by the Bradford assay (BioRad, Hercules, Calif.), were mixed with loading buffer (final concentrations of 62.5 mM Tris-HCl (pH 6.8), 2.3% SDS, 100 mM dithiothreitol, and 0.005% bromophenol blue), boiled, fractionated in a 10% SDS-PAGE, and transferred onto a 0.45-μm nitrocellulose membrane by electroblotting (BioRad). […]

thymidylate synthase [3] = assay: Thymidylate synthase (TS) assay in PC-3 cells; assay type: cell-based, Human; settings: PC3 cells, within 8 hours
Method: as §1
TS assay was performed as previously described (24). Briefly, 25 μl of cell extract containing 50 μg protein, 5 μl 6.5 mM 5,10-CH2-THF, and 10 μl of Tris.HCl buffer were combined at room temperature. […] After centrifugation, 150 μl of the supernatant were counted by liquid scintillation. […]

[4] = cited from earlier work
GBM at recurrence = settings: single agent, cited from earlier work
Yoshida sarcoma = settings: coadministered with methionine depleted diet, 1.0 mg/kg/day on days 2, 4, 6; cited from earlier work
multiple myeloma = settings: oral administration; cited from earlier work
[5] = test system: human breast carcinoma (MX-t) cell line; settings: combined with methionine depletion; cited from earlier work
Hela cells = assay: Western blot of caspases, BID, Bcl-2, Hela
PC-3 cells [6] = assay: Western blot of caspases, BID, Bcl-2, PC-3; assay type: cell-based, Human
[7] = test system: Hodgkin's Disease and testicular tumors; settings: in vivo; cited from earlier work

Compound: O=c1[nH]cc(F)c(=O)[nH]1 [5-FU, 5-fluorouracil]
- dUMP/dTTP ratio (PC-3 cells [1]): dramatic increase
- TS protein accumulation in response to 5-FU (thymidylate synthase [2]; concurrent methionine restriction): largely abrogated
- TS protein level (thymidylate synthase [2]; western blot): dramatically increased
- inhibition of TS activity (thymidylate synthase [3]): 95%

Compound: Cc1c2oc3c(C)ccc(C(=O)N[C@@H]4C(=O)N[C@H](C(C)C)C(=O)N5CCC[C@H]5C(=O)N(C)CC(=O)N(C)[C@@H](C(C)C)C(=O)O[C@@H]4C)c3nc-2c(C(=O)N[C@@H]2C(=O)N[C@H](C(C)C)C(=O)N3CCC[C@H]3C(=O)N(C)CC(=O)N(C)[C@@H](C(C)C)C(=O)O[C@@H]2C)c(N)c1=O [Actinomycin D] (I: T[dV]P[Sar][NMeV] / II: T[dV]P[Sar][NMeV]; ester I:1-I:C, II:1-II:C; linker I:N-II:N via Actinocin(9to1))
- fraction of the dose excreted intact into the bile ([4]; in vivo): Half

Compound: O=NN(CCCl)C(=O)NCCCl [Carmustine, 1,3bis (2-chloroethyl)-1-nitrosourea]
- Response rate (responders plus stable disease) (GBM at recurrence; Berger et al., 1996): 29%
- median time to progression (GBM at recurrence): 22 weeks

Compound: COc1cccc2c1C(=O)c1c(O)c3c(c(O)c1C2=O)C[C@@](O)(C(=O)CO)C[C@@H]3O[C@H]1C[C@H](N)[C@H](O)[C@H](C)O1 [Doxorubicin, 5,12-Naphthacenedione, (8s-cis)-10-[(3-amino-2,3,6-trideoxy-a-L-lyxo-hexopyranosyl)oxy]-7,8,9,10-tetrahydro-6,8,11-trihydroxy-8-(hydroxyacetyl)-1-methoxy-hydrochloride]
- effectiveness (reduced tumor weight, increased survivability) (Yoshida sarcoma): enhanced effectiveness

Compound: O=NN(CCCl)C(=O)NC1CCCCC1 [Lomustine, 1-(2-chloro-ethyl)-3-cyclohexyl-1 nitrosourea]
- fraction of radioactivity excreted as degradation products ([4]; oral, 30 mg/m^2 to 100 mg/m^2, within 24 hours): about half

Compound: N[C@@H](Cc1ccc(N(CCCl)CCCl)cc1)C(=O)O [Melphalan, 4-[bis(2-chloroethyl)amino]-L-phenylalanine]
- fraction of patients with favorable response (multiple myeloma): one third to one half

Compound: N.N.[Cl][Pt][Cl] [cisplatin, Cisplatin]
- Treated tumor growth, % of growth in control mice tumors [5]: 32%

Compound: CN[C@@H]1C[C@H]2O[C@@](C)([C@@H]1OC)n1c3ccccc3c3c4c(c5c6ccccc6n2c5c31)C(=O)NC4 [staurosporine]
- active (cleaved) form of caspases by western blot (Hela cells): detectable

Compound: CC(=O)O[C@H]1C(=O)[C@@]2(C)[C@H]([C@H](OC(=O)c3ccccc3)[C@]3(O)C[C@H](OC(=O)[C@H](O)[C@@H](NC(=O)c4ccccc4)c4ccccc4)C(C)=C1C3(C)C)[C@]1(OC(C)=O)CO[C@@H]1C[C@@H]2O [taxol, Taxol]
- Bcl-2 phosphorylation (upward shift on western blot) (Hela cells): phosphorylated
- Bcl-2 phosphorylation (upward shift on western blot) (PC-3 cells [6]): phosphorylated

Compound: Bleomycin
- time until improvement is noted [7]: ≤ 2 weeks
